Data published in US8088741B2, “Compounds for enzyme inhibition” (Onyx Therapeutics, Inc., priority 2004, dated 2012).
pIC50: −log10 of the molar value.

Tests used:
[1] = molecular target: T1, Cell-based CT-L (proteasome chymotrypsin-like activity) (Homo sapiens, UniProt P28074); assay: Cell-based proteasome CT-L activity inhibition
T1 construct: endogenous in cells
T1 sequence (P28074 60-263): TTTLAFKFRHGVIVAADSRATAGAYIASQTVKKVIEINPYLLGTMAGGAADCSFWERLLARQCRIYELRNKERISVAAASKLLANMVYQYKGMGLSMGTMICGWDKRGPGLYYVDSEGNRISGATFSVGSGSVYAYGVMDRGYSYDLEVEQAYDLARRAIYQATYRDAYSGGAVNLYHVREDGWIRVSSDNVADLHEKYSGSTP

[2] = molecular target: 20S proteasome chymotrypsin-like activity (CT-L) (Homo sapiens, UniProt P28074); assay: 20S proteasome chymotrypsin-like (CT-L) activity inhibition; format: biochemical
Text: As used herein, the term “inhibitor” is meant to describe a compound that blocks or reduces an activity of an enzyme (for example, inhibition of proteolytic cleavage of standard fluorogenic peptide substrates such as suc-LLVY-AMC, Box-LLR-AMC and Z-LLE-AMC, inhibition of various catalytic activities of the 20S proteasome). An inhibitor can act with competitive, uncompetitive, or noncompetitive inhibition. An inhibitor can bind reversibly or irreversibly, and therefore the term includes compounds that are suicide substrates of an enzyme. An inhibitor can modify one or more sites on or near the active site of the enzyme, or it can cause a conformational change elsewhere on the enzyme.
The chymotrypsin-like activity of 20S proteasome is characterized by cleavage of peptides in the immediate vicinity of large hydrophobic residues. In particular, the chymotrypsin-like activity of Ntn hydrolases can be determined by cleavage of a standard substrate. Examples of such substrates are known in the art. For example, a leucylvalinyltyrosine derivative can be used. Enzyme kinetic assays are disclosed in U.S. application Ser. No. 09/569748, Example 2 and Stein et al., Biochem. (1996), 35, 3899-3908.

SMILES	pIC50 [1]	pIC50 [2]
CC(C)C[C@H](NC(=O)CN1CCOCC1)C(=O)N[C@@H](Cc1ccccc1)C(=O)N[C@@H](CC(C)C)C(=O)[C@@]1(C)CO1 [Compound 18]	> 7.30	> 7.30
Cc1ccc(CCC(=O)N[C@@H](CC(C)C)C(=O)N[C@@H](Cc2ccccc2)C(=O)N[C@@H](CC(C)C)C(=O)[C@@]2(C)CO2)cc1 [Compound 8]	> 7.30	> 7.30
COc1ccc(NC(=S)N[C@@H](CC(C)C)C(=O)N[C@@H](Cc2ccccc2)C(=O)N[C@@H](CC(C)C)C(=O)[C@@]2(C)CO2)cc1 [Compound 16]	> 7.30	> 7.30
COc1ccc(NC(=O)N[C@@H](CC(C)C)C(=O)N[C@@H](Cc2ccccc2)C(=O)N[C@@H](CC(C)C)C(=O)[C@@]2(C)CO2)cc1 [Compound 17]	> 7.30	> 7.30
CC(=O)N[C@@H](CCc1ccccc1)C(=O)N[C@@H](CC(C)C)C(=O)N[C@@H](CO)C(=O)N[C@@H](CC(C)C)C(=O)[C@@]1(C)CO1 [Compound 2]	> 6.30	> 7.30
CC(C)C[C@H](NC(=O)c1ccccc1)C(=O)N[C@@H](Cc1ccccc1)C(=O)N[C@@H](CC(C)C)C(=O)[C@@]1(C)CO1 [Compound 3]	> 7.30	> 7.30
CC(C)C[C@H](NS(=O)(=O)c1ccsc1)C(=O)N[C@@H](Cc1ccccc1)C(=O)N[C@@H](CC(C)C)C(=O)[C@@]1(C)CO1 [Compound 14]	> 7.30	> 7.30
CC(C)C[C@H](NC(=O)[C@H](CCc1ccccc1)NC(=O)CN1CCOCC1)C(=O)N[C@@H](Cc1ccc(F)cc1)C(=O)N[C@@H](CC(C)C)C(=O)[C@@]1(C)CO1 [Compound 9]	> 7.30	> 7.30
CC(C)C[C@H](NC(=O)C1CCN(S(=O)(=O)c2cccs2)CC1)C(=O)N[C@@H](Cc1ccccc1)C(=O)N[C@@H](CC(C)C)C(=O)[C@@]1(C)CO1 [Compound 7]	> 6.30	> 6.30
